Broadly, the Kd is the free concentration of one partner at which half of the binding sites on the other are occupied at equilibrium, for simple one-to-one binding.

This passage reports Kd results from article PMC7948398, “Rapid kinetics reveal surprising flavin chemistry in bifurcating electron transfer flavoprotein from Acidaminococcus fermentans” (The Journal of Biological Chemistry, 2020).

This assay deals with T1, EtfAB; EtfaB (EtfAB from which α-FAD was removed) (Acidaminococcus fermentans, UniProt D2RIQ2+D2RIQ3).
T1 construct: gene Acfer_0555; recombinant from pET-11a by autoinduction; AB heterodimer, 66 kDa; EtfAB holds α-FAD and β-FAD; EtfaB made by removing FAD from the A-subunit (phenyl Sepharose, KBr); with Electron transfer flavoprotein subunit alpha
T1 sequence (D2RIQ2 1-263): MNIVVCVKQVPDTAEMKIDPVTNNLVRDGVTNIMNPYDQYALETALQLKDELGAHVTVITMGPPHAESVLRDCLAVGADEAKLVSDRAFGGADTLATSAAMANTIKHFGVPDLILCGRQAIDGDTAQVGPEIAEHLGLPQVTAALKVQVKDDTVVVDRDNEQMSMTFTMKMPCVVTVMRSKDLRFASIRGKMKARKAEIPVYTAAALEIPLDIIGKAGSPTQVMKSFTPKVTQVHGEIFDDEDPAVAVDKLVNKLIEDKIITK
T1 sequence (D2RIQ3 1-340): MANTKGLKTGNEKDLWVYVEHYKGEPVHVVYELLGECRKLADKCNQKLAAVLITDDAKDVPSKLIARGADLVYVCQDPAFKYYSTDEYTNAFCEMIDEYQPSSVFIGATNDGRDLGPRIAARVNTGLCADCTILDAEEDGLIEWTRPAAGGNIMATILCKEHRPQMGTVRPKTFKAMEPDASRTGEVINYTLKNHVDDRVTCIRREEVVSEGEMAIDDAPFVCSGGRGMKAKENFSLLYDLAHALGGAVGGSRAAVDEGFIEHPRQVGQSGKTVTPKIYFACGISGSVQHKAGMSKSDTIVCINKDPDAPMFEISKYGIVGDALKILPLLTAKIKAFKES
Nature of the assay: anaerobic stopped-flow, kobs at […] nm versus [NADH]. Type of assay: biochemical. Particulars: EtfaB form (β-FAD only, α-FAD removed), slow-reacting minor population (~16%); 50 mM potassium phosphate pH 7.0, 4 °C; site at β-FAD.

The compound `NC(=O)C1=CN([C@@H]2O[C@H](COP(=O)(O)OP(=O)(O)OC[C@H]3O[C@@H](n4cnc5c(N)ncnc54)[C@H](O)[C@@H]3O)[C@@H](O)[C@H]2O)C=CC1` [NADH] showed a Kd of 3.8 ± 0.2 mM.
